Measurements reported in ChEMBL document CHEMBL5126671, “Novel TYK2 Inhibitors with an N-(Methyl-d 3)pyridazine-3-carboxamide Skeleton for the Treatment of Autoimmune Diseases” (ACS Med Chem Lett, 2022).
“And” between values parts separate entries of the source, which are not always exact repeats. Equal values may be shown once.

What was measured:
[1] = molecular target: T1, Non-receptor tyrosine-protein kinase TYK2 (Homo sapiens, UniProt P29597); assay: Inhibition of TYK2 JH2 domain (unknown origin) assessed as melting temperature at 10 uM by thermal shift assay; settings: tested as the 2H-labelled form
[2] = molecular target: T1, Non-receptor tyrosine-protein kinase TYK2; assay: Inhibition of TYK2 JH2 domain (unknown origin) assessed as melting temperature at 1 uM by thermal shift assay; settings: tested as the 2H-labelled form

T1 sequence (P29597 whole entry, the tested form may be a part): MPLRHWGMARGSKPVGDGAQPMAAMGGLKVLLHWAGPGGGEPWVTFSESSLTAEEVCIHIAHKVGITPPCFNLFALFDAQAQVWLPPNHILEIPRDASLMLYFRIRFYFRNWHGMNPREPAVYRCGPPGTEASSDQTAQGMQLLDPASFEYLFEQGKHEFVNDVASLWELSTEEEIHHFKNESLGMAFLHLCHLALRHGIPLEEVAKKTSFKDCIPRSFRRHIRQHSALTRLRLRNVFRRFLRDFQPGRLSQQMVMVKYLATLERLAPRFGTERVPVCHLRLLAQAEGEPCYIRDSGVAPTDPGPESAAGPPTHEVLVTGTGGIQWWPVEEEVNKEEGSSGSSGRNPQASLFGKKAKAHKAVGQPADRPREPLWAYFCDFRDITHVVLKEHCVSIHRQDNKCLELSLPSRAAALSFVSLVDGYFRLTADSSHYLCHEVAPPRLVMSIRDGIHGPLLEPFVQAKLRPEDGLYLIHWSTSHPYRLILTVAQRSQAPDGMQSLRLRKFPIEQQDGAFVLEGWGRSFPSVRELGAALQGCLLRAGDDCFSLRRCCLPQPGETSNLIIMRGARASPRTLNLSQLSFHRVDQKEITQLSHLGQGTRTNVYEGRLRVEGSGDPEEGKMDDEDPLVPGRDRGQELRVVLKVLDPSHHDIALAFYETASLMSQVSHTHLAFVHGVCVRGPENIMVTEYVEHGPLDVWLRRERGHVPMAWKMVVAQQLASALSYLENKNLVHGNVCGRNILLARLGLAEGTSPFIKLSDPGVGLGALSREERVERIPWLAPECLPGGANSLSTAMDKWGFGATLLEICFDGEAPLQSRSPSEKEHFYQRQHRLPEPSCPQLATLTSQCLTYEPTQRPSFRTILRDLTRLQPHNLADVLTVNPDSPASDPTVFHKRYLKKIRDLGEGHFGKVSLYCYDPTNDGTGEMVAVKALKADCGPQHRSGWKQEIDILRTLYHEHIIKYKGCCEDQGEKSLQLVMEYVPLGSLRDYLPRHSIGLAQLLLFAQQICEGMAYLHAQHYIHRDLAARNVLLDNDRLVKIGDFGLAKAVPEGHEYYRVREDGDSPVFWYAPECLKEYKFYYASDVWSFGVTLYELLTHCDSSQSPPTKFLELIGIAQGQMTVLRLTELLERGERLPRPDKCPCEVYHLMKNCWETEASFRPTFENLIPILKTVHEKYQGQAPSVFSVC

Tm [1]	Tm [2]	Compound
62 °C	56.9 °C	CNC(=O)c1nnc(Nc2ccccn2)cc1Nc1cccc(C(=O)Nc2ccc(NC[C@H]3COCCO3)cc2)c1OC
65.9 °C and 66.1 °C	60.2 °C and 59.5 °C	CNC(=O)c1nnc(NC(=O)C2CC2)cc1Nc1cccc(C(=O)Nc2ccc(C(=O)N3CCCC3)cc2)c1OC
64 °C	57.9 °C	CNC(=O)c1nnc(NC(=O)C2CC2)cc1Nc1cccc(C(=O)Nc2ccc(C(=O)N3CCCC3)nc2)c1OC
56.5 °C	51.7 °C	CNC(=O)c1nnc(NC(=O)C2CC2)cc1Nc1cccc(C(=O)Nc2ccc(C(N)=O)cn2)c1OC
68.7 °C	65.4 °C	CNC(=O)c1nnc(Nc2ccc(F)cn2)cc1Nc1cccc(C(=O)Nc2ccc(C(=O)N3CCCC3)cc2)c1OC
60 °C	55.1 °C	CNC(=O)c1nnc(NC(=O)C2CC2)cc1Nc1cccc(C(=O)Nc2ccc3c(c2)CN(C2CC2)C3=O)c1OC
56.8 °C	52.5 °C	CNC(=O)c1nnc(NC(=O)C2CC2)cc1Nc1cccc(C(=O)Nc2ccc3c(c2)C(=O)NC3)c1OC
58.3 °C	54.1 °C	CNC(=O)c1nnc(NC(=O)C2CC2)cc1Nc1cccc(C(=O)NC2CCC(C(=O)N3CCCC3)CC2)c1OC (configuration not stated)
59.5 °C	54.5 °C	CNC(=O)c1nnc(NC(=O)C2CC2)cc1Nc1cccc(C(=O)Nc2ccc3c(c2)CC(=O)N3)c1OC
65.1 °C	59.3 °C	CNC(=O)c1nnc(NC(=O)C2CC2)cc1Nc1cccc(C(=O)Nc2ccc(C(=O)N3CCSC3)cc2)c1OC
57 °C	53 °C	CNC(=O)c1nnc(NC(=O)C2CC2)cc1Nc1cccc(C(=O)Nc2ccc(C(N)=O)cc2)c1OC
62.9 °C	57.3 °C	CNC(=O)c1nnc(NC(=O)C2CC2)cc1Nc1cccc(C(=O)Nc2ccc(NC[C@@H]3COCCO3)cc2)c1OC
66.7 °C	60.9 °C	CNC(=O)c1nnc(NC(=O)C2CC2)cc1Nc1cccc(C(=O)Nc2ccc(C(=O)N3CCCC3)c(F)c2)c1OC
60.2 °C	56 °C	CNC(=O)c1nnc(NC(=O)C2CC2)cc1Nc1cccc(C(=O)Nc2ccc(C(=O)NC3CCCC3)cc2)c1OC
65 °C	58.2 °C	CNC(=O)c1nnc(NC(=O)C2CC2)cc1Nc1cccc(C(=O)Nc2ccc(S(=O)(=O)N3CCCC3)cc2)c1OC
60.1 °C	55.5 °C	CCNC(=O)c1ccc(NC(=O)c2cccc(Nc3cc(NC(=O)C4CC4)nnc3C(=O)NC)c2OC)cc1
66.3 °C	60 °C	CNC(=O)c1nnc(NC(=O)C2CC2)cc1Nc1cc(F)cc(C(=O)Nc2ccc(NC[C@H]3COCCO3)cc2)c1OC
67.3 °C	62.7 °C	CNC(=O)c1nnc(NC(=O)C2CC2)cc1Nc1cccc(C(=O)Nc2ccc(C(=O)N3C4CCC3CC4)cc2)c1OC
58 °C	54.9 °C	CNC(=O)c1nnc(NC(=O)C2CC2)cc1Nc1cccc(C(=O)Nc2ccc3c(c2)CNC3=O)c1OC
58.8 °C	53.7 °C	CNC(=O)c1nnc(NC(=O)C2CC2)cc1Nc1cccc(C(=O)Nc2csc(C(N)=O)c2)c1OC
59.2 °C	54.9 °C	CNC(=O)c1nnc(NC(=O)C2CC2)cc1Nc1cccc(C(=O)Nc2cccc3c2C(=O)NC3)c1OC
58 °C	54.6 °C	CNC(=O)c1ccc(NC(=O)c2cccc(Nc3cc(NC(=O)C4CC4)nnc3C(=O)NC)c2OC)cc1
67.1 °C	63.7 °C	CNC(=O)c1nnc(NC(=O)C2CC2)cc1Nc1cccc(C(=O)Nc2ccc(C(=O)N3[C@H](C#N)C[C@@H]4C[C@@H]43)cc2)c1OC
61.9 °C	57.1 °C	CNC(=O)c1nnc(NC(=O)C2CC2)cc1Nc1cccc(C(=O)Nc2ccc(NCC3CCOCC3)cc2)c1OC
69.2 °C	65.9 °C	CNC(=O)c1nnc(Nc2ccccn2)cc1Nc1cccc(C(=O)Nc2ccc(C(=O)N3CCCC3)cc2)c1OC

Compound	Tm [1]	Tm [2]
CCN(CC)C(=O)c1ccc(NC(=O)c2cccc(Nc3cc(NC(=O)C4CC4)nnc3C(=O)NC)c2OC)cc1	66.3 °C	60.6 °C
